Here are results for four molecules from US9536718B2, “Detection of membrane protein-therapeutic agent complexes by mass spectrometry” (Oxford University Innovation Limited, priority 2011, dated 2017).

In assay [1] the test system is P-gp. As to the kind of experiment: native mass spectrometry of P-gp with CsA, nucleotides and lipid (Example 2). The format is binding. The note with it: for number of nucleotides bound to P-gp: 1 mM MgCl2 plus 50 μM ATP or ATPγS, FIG. 2c. Here is the method:
His-tagged P-glycoprotein was expressed in P.pastoris and purified according to a protocol described previously (see Aller et al, supra). Lipids were purchased from Avanti Polar Lipids.
Before analysis, P-gp was buffer exchanged into 200 mM ammonium acetate pH 7 supplemented with 0.02% n-dodecyl-β-D-maltoside (DDM), using micro BioSpin-6 devices (Bio-Rad). Lipids were first prepared at 2 mM in chloroform and then diluted to 20 μM in 200 mM ammonium acetate pH 7 supplemented with 0.02% DDM. Cyclosporin was first dissolved at 8 mM in methanol and then diluted to 5-100 μM in 200 mM ammonium acetate pH 7 supplemented with 0.02% DDM. MS spectra were acquired on a Q-TOF2 (Micromass) modified for the transmission and detection of high mass complexes. Samples were introduced in the ion-source via gold-coated nanoflow capillaries. […] Micelle transmission was enhanced by increasing the Pirani pressure to 30 mbar. […] Spectra were analysed with Massign software.

Assay [2] has as its system mouse P-gp. Kind of assay: nanoelectrospray MS / IM-MS of P-gp pre-incubated with drug compounds (Example 1). The format is binding. The note with it: 2-3 mg/ml P-gp pre-incubated with 1-10 molar equivalents of test compound; FIG. 1. The protocol:
P-glycoprotein (P-gp) was expressed and purified as reported previously (Aller et al, Science, 2009, 323, 1718-1722). In this method, P-gp was expressed in P. pastoris strain and purified as a his-tagged protein from the membranes solubilised with Triton X-100. Buffer was exchanged by washing with buffer containing 20 mM imidazole, 0.04% sodium cholate and 0.0675% β-DDM. The protein was concentrated, subjected to gel filtration chromatography and assayed for purity by SDS-PAGE.
An aliquot (30 μl) of mouse P-gp solution (9 mg/ml) in 0.07% β-DDM, 0.04% sodium cholate, 100 mM NaCl, 0.2 mM TCEP, 20 mM Hepes, pH 7.5 was buffer-exchanged using a membrane filter and diluted 3-fold in 300 mM ammonium acetate, pH 7.5. Spectra of P-gp with drug compounds were obtained by first pre-incubating 2-3 mg/ml P-gp protein with 1-10 molar equivalents of the test compound for 15 minutes to overnight prior to nanoelectrospray ionisation mass spectrometry.
Mass spectrometry measurements were carried out on a Synapt HDMS (Waters, Manchester, UK) quadrupole-S2 ion-trap-IM-MS instrument modified for transmission and detection of ions at high m/z ratios. Aliquots of complex-containing solutions (2 μL) in detergent were introduced via gold-coated nanoflow electrospray capillaries. […]

Consider `Nc1ncnc2c1ncn2[C@@H]1O[C@H](COP(=O)(O)OP(=O)(O)OP(O)(O)=S)[C@@H](O)[C@H]1O` [ATPγS], for which the “number of nucleotides bound to P-gp” value in assay [1] is reported as “one or two”. Still for that read-out and setting: the same measure for `Nc1ncnc2c1ncn2[C@@H]1O[C@H](COP(=O)(O)OP(=O)(O)OP(=O)(O)O)[C@@H](O)[C@H]1O` [ATP, adenosine triphosphate]: “one or two”. In the case of `CC(C)[C@H]1NC(=O)c2c[se]c(n2)[C@@H](C(C)C)NC(=O)c2c[se]c(n2)[C@@H](C(C)C)NC(=O)c2c[se]c1n2` [QZ59Se, RRR], the “effect of drug binding on the mass spectrum of P-gp” value in assay [2] is “altered the mass spectrum of the membrane protein”. Take cardiolipin 14:1(3)-15:1: in assay [1] (first incubated with ATP or ATPγS, then with cardiolipin or CsA, FIG. 3a, b), the “number of molecules bound to P-gp already bound to one ATP or ATPγS” value is “one or two”.
